Experiment: recombinant barcode read abundance after kanamycin selection (control-corrected) (log10(CPM+1)); higher = more efficient recombination; sequences stand for … in AGTGCAGAGAAAATCGGCCAGTTTTCTCTGCCTGCAGTCCGCATGCCGT…ATTTATGCAGCGGACTGCCTTTCTCCCAAAGTGATAAACCGGACAGTATCATGGACCGGTTTTCCCGGTAATCCGTATTTGCAAGGTTGGTTTCACT; site = the 11-nt target
Description: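 Same pooled E. coli target screen (IS621 bridge recombinase, kanamycin selection, control-corrected CPM, mean of 2 biological replicates). Here the two core-binding nucleotides of the LTG and RTG of the bridge RNA target-binding loop are mutated. Target and donor CT cores are held constant, and the other 9 guide positions match the target. The target is read from the library oligo sequence. Molecule = full bridge RNA written as DNA: nt 1-80 from the library oligo, rest WT scaffold.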

Sequence	recombinant barcode read abundance (log10)
AGGCGGGCCTGGGTTCTAACCTGTTGCGGGG [AGGCGGGCTCC_LTGcore_CC_RTGcore_CC] (site AGGCGGGCTCC) (LTG core: CC, RTG core: CC)	0.126
AGGCGGGCTTGGGTTCTAACCTGTTGCGGAC [AGGCGGGCTCC_LTGcore_CT_RTGcore_GT] (site AGGCGGGCTCC) (LTG core: CT, RTG core: GT)	0.13
AGGCGGGCTTGGGTTCTAACCTGTTGCGGAT [AGGCGGGCTCC_LTGcore_CT_RTGcore_AT] (site AGGCGGGCTCC) (LTG core: CT, RTG core: AT)	0.513
AGGCGGGCTTGGGTTCTAACCTGTTGCGGCG [AGGCGGGCTCC_LTGcore_CT_RTGcore_CG] (site AGGCGGGCTCC) (LTG core: CT, RTG core: CG)	0.146
AGGCGGGCTTGGGTTCTAACCTGTTGCGGGA [AGGCGGGCTCC_LTGcore_CT_RTGcore_TC] (site AGGCGGGCTCC) (LTG core: CT, RTG core: TC)	0.253
AGGCGGGCTTGGGTTCTAACCTGTTGCGGTC [AGGCGGGCTCC_LTGcore_CT_RTGcore_GA] (site AGGCGGGCTCC) (LTG core: CT, RTG core: GA)	0.246
AGGCGGGGATGGGTTCTAACCTGTTGCGGTC [AGGCGGGCTCC_LTGcore_GA_RTGcore_GA] (site AGGCGGGCTCC) (LTG core: GA, RTG core: GA)	0.133
AGGCGGGGGTGGGTTCTAACCTGTTGCGGAG [AGGCGGGCTCC_LTGcore_GG_RTGcore_CT] (site AGGCGGGCTCC) (LTG core: GG, RTG core: CT)	0.101
AGGCGGGGTTGGGTTCTAACCTGTTGCGGAG [AGGCGGGCTCC_LTGcore_GT_RTGcore_CT] (site AGGCGGGCTCC) (LTG core: GT, RTG core: CT)	0.871
AGGCGGGTATGGGTTCTAACCTGTTGCGGTA [AGGCGGGCTCC_LTGcore_TA_RTGcore_TA] (site AGGCGGGCTCC) (LTG core: TA, RTG core: TA)	0.364
AGGCGGGTTTGGGTTCTAACCTGTTGCGGAA [AGGCGGGCTCC_LTGcore_TT_RTGcore_TT] (site AGGCGGGCTCC) (LTG core: TT, RTG core: TT)	0.299
AGGCGGTAATGGGTTCTAACCTGTTGCTTAG [AGGCGGTCTAA_LTGcore_AA_RTGcore_CT] (site AGGCGGTCTAA) (LTG core: AA, RTG core: CT)	0.371
AGGCGGTAATGGGTTCTAACCTGTTGCTTTT [AGGCGGTCTAA_LTGcore_AA_RTGcore_AA] (site AGGCGGTCTAA) (LTG core: AA, RTG core: AA)	0.0996
AGGCGGTCTTGGGTTCTAACCTGTTGCTTCC [AGGCGGTCTAA_LTGcore_CT_RTGcore_GG] (site AGGCGGTCTAA) (LTG core: CT, RTG core: GG)	0.0963
AGGCGGTCTTGGGTTCTAACCTGTTGCTTGT [AGGCGGTCTAA_LTGcore_CT_RTGcore_AC] (site AGGCGGTCTAA) (LTG core: CT, RTG core: AC)	0.127
AGGCGGTCTTGGGTTCTAACCTGTTGCTTTT [AGGCGGTCTAA_LTGcore_CT_RTGcore_AA] (site AGGCGGTCTAA) (LTG core: CT, RTG core: AA)	0.0668
AGGCGGTGCTGGGTTCTAACCTGTTGCTTAG [AGGCGGTCTAA_LTGcore_GC_RTGcore_CT] (site AGGCGGTCTAA) (LTG core: GC, RTG core: CT)	0.419
AGGCGGTGTTGGGTTCTAACCTGTTGCTTAG [AGGCGGTCTAA_LTGcore_GT_RTGcore_CT] (site AGGCGGTCTAA) (LTG core: GT, RTG core: CT)	0.203
AGGCGGTTGTGGGTTCTAACCTGTTGCTTAG [AGGCGGTCTAA_LTGcore_TG_RTGcore_CT] (site AGGCGGTCTAA) (LTG core: TG, RTG core: CT)	0.113
AGTCTTAAGTGGGTTCTAACCTGTTGCCAAG [AGTCTTACTTG_LTGcore_AG_RTGcore_CT] (site AGTCTTACTTG) (LTG core: AG, RTG core: CT)	0.102
AGTCTTAATTGGGTTCTAACCTGTTGCCAAT [AGTCTTACTTG_LTGcore_AT_RTGcore_AT] (site AGTCTTACTTG) (LTG core: AT, RTG core: AT)	0.0434
AGTCTTACCTGGGTTCTAACCTGTTGCCAGG [AGTCTTACTTG_LTGcore_CC_RTGcore_CC] (site AGTCTTACTTG) (LTG core: CC, RTG core: CC)	0.117

Sequence	recombinant barcode read abundance (log10)
AGTCTTACTTGGGTTCTAACCTGTTGCCACA [AGTCTTACTTG_LTGcore_CT_RTGcore_TG] (site AGTCTTACTTG) (LTG core: CT, RTG core: TG)	0.032
AGTCTTATATGGGTTCTAACCTGTTGCCAAG [AGTCTTACTTG_LTGcore_TA_RTGcore_CT] (site AGTCTTACTTG) (LTG core: TA, RTG core: CT)	0.0306
AGTCTTATTTGGGTTCTAACCTGTTGCCAAA [AGTCTTACTTG_LTGcore_TT_RTGcore_TT] (site AGTCTTACTTG) (LTG core: TT, RTG core: TT)	0.0474
ATGCTTTAATGGGTTCTAACCTGTTGCCTAG [ATGCTTTCTAG_LTGcore_AA_RTGcore_CT] (site ATGCTTTCTAG) (LTG core: AA, RTG core: CT)	0.0699
ATGCTTTATTGGGTTCTAACCTGTTGCCTAG [ATGCTTTCTAG_LTGcore_AT_RTGcore_CT] (site ATGCTTTCTAG) (LTG core: AT, RTG core: CT)	0.162
ATGCTTTCTTGGGTTCTAACCTGTTGCCTAG [ATGCTTTCTAG_LTGcore_CT_RTGcore_CT] (site ATGCTTTCTAG) (LTG core: CT, RTG core: CT)	0.384
ATGCTTTCTTGGGTTCTAACCTGTTGCCTCT [ATGCTTTCTAG_LTGcore_CT_RTGcore_AG] (site ATGCTTTCTAG) (LTG core: CT, RTG core: AG)	0.0217
ATGCTTTCTTGGGTTCTAACCTGTTGCCTGA [ATGCTTTCTAG_LTGcore_CT_RTGcore_TC] (site ATGCTTTCTAG) (LTG core: CT, RTG core: TC)	0.0714
ATGCTTTGCTGGGTTCTAACCTGTTGCCTAG [ATGCTTTCTAG_LTGcore_GC_RTGcore_CT] (site ATGCTTTCTAG) (LTG core: GC, RTG core: CT)	0.0505
ATGCTTTGGTGGGTTCTAACCTGTTGCCTCC [ATGCTTTCTAG_LTGcore_GG_RTGcore_GG] (site ATGCTTTCTAG) (LTG core: GG, RTG core: GG)	0.235
ATGTCCCACTGGGTTCTAACCTGTTGCTCGT [ATGTCCCCTGA_LTGcore_AC_RTGcore_AC] (site ATGTCCCCTGA) (LTG core: AC, RTG core: AC)	0.183
ATGTCCCAGTGGGTTCTAACCTGTTGCTCAG [ATGTCCCCTGA_LTGcore_AG_RTGcore_CT] (site ATGTCCCCTGA) (LTG core: AG, RTG core: CT)	0.0996
ATGTCCCATTGGGTTCTAACCTGTTGCTCAG [ATGTCCCCTGA_LTGcore_AT_RTGcore_CT] (site ATGTCCCCTGA) (LTG core: AT, RTG core: CT)	0.234
ATGTCCCCTTGGGTTCTAACCTGTTGCTCCG [ATGTCCCCTGA_LTGcore_CT_RTGcore_CG] (site ATGTCCCCTGA) (LTG core: CT, RTG core: CG)	0.249
ATGTCCCCTTGGGTTCTAACCTGTTGCTCGC [ATGTCCCCTGA_LTGcore_CT_RTGcore_GC] (site ATGTCCCCTGA) (LTG core: CT, RTG core: GC)	0.327
ATGTCCCCTTGGGTTCTAACCTGTTGCTCGG [ATGTCCCCTGA_LTGcore_CT_RTGcore_CC] (site ATGTCCCCTGA) (LTG core: CT, RTG core: CC)	0.29
ATGTCCCGATGGGTTCTAACCTGTTGCTCAG [ATGTCCCCTGA_LTGcore_GA_RTGcore_CT] (site ATGTCCCCTGA) (LTG core: GA, RTG core: CT)	0.647
ATGTCCCGGTGGGTTCTAACCTGTTGCTCAG [ATGTCCCCTGA_LTGcore_GG_RTGcore_CT] (site ATGTCCCCTGA) (LTG core: GG, RTG core: CT)	0.294
ATGTCCCGTTGGGTTCTAACCTGTTGCTCAC [ATGTCCCCTGA_LTGcore_GT_RTGcore_GT] (site ATGTCCCCTGA) (LTG core: GT, RTG core: GT)	0.0823
ATGTCCCTCTGGGTTCTAACCTGTTGCTCAG [ATGTCCCCTGA_LTGcore_TC_RTGcore_CT] (site ATGTCCCCTGA) (LTG core: TC, RTG core: CT)	0.209
ATGTCCCTGTGGGTTCTAACCTGTTGCTCAG [ATGTCCCCTGA_LTGcore_TG_RTGcore_CT] (site ATGTCCCCTGA) (LTG core: TG, RTG core: CT)	0.0616
ATGTCCCTGTGGGTTCTAACCTGTTGCTCCA [ATGTCCCCTGA_LTGcore_TG_RTGcore_TG] (site ATGTCCCCTGA) (LTG core: TG, RTG core: TG)	0.0547

From the supplement of paper PMC11208160
